In PubChem BioAssay (NCI):
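GI50 marks 50% less growth. TGI marks complete inhibition of growth.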

What was measured:
Assay in all cases: NCI anticancer screen, dose series, 384-well format
CCRF-CEM leukemia = system: CCRF-CEM leukemia
HT29 colon = system: HT29 colon
MOLT-4 leukemia = system: MOLT-4 leukemia
UACC-62 melanoma = system: UACC-62 melanoma
MDA-MB-435 melanoma = system: MDA-MB-435 melanoma
UO-31 renal = system: UO-31 renal
SF-268 CNS = system: SF-268 CNS
SK-MEL-5 melanoma = system: SK-MEL-5 melanoma
K-562 leukemia = system: K-562 leukemia
OVCAR-5 ovarian = system: OVCAR-5 ovarian
SR leukemia = system: SR leukemia
OVCAR-8 ovarian = system: OVCAR-8 ovarian
TK-10 renal = system: TK-10 renal
EKVX NSCLC = system: EKVX NSCLC
SW-620 colon = system: SW-620 colon
786-0 renal = system: 786-0 renal
MALME-3M melanoma = system: MALME-3M melanoma
SF-295 CNS = system: SF-295 CNS
NCI/ADR-RES ovarian = system: NCI/ADR-RES ovarian
SK-OV-3 ovarian = system: SK-OV-3 ovarian
A549 NSCLC = system: A549 NSCLC
MDA-MB-231 breast = system: MDA-MB-231 breast
UACC-257 melanoma = system: UACC-257 melanoma
NCI-H460 NSCLC = system: NCI-H460 NSCLC
PC-3 prostate = system: PC-3 prostate
U251 glioblastoma = system: U251 glioblastoma
SNB-75 CNS = system: SNB-75 CNS
NCI-H226 lung = system: NCI-H226 lung
M14 melanoma = system: M14 melanoma
T-47D breast = system: T-47D breast
HOP-92 NSCLC = system: HOP-92 NSCLC
CAKI-1 renal = system: CAKI-1 renal
HCC-2998 colon = system: HCC-2998 colon
COLO 205 colon = system: COLO 205 colon
SK-MEL-28 melanoma = system: SK-MEL-28 melanoma
MDA-MB-468 breast = system: MDA-MB-468 breast
IGROV1 ovarian = system: IGROV1 ovarian
A498 renal = system: A498 renal
SNB-19 CNS = system: SNB-19 CNS
HS 578T breast = system: HS 578T breast
HOP-62 NSCLC = system: HOP-62 NSCLC
BT-549 breast = system: BT-549 breast
KM12 colon = system: KM12 colon
SF-539 CNS = system: SF-539 CNS
MCF7 breast = system: MCF7 breast
HCT-15 colon = system: HCT-15 colon
NCI-H322M lung = system: NCI-H322M lung
RPMI-8226 leukemia = system: RPMI-8226 leukemia
RXF 393 renal = system: RXF 393 renal
LOX IMVI melanoma = system: LOX IMVI melanoma
DU-145 prostate = system: DU-145 prostate
ACHN renal = system: ACHN renal
NCI-H522 lung = system: NCI-H522 lung
NCI-H23 lung = system: NCI-H23 lung
OVCAR-3 ovarian = system: OVCAR-3 ovarian
SN12C renal = system: SN12C renal
SK-MEL-2 melanoma = system: SK-MEL-2 melanoma
HL-60(TB) leukemia = system: HL-60(TB) leukemia
OVCAR-4 ovarian = system: OVCAR-4 ovarian

`CC1(C)CC[C@H](Nc2ncc(C(F)(F)F)c(-c3c[nH]c4c(P(C)(C)=O)c(C#N)ccc34)n2)CN1` was tested, and the GI50 (CCRF-CEM leukemia) was 54.6 nM, the TGI (CCRF-CEM leukemia) was 1360 nM and the GI50 (HT29 colon) was 2060 nM. It also gave a TGI (HT29 colon) of 28.3 µM, a GI50 (MOLT-4 leukemia) of less than 10 nM and a TGI (MOLT-4 leukemia) of less than 10 nM. For the same molecule, the GI50 (UACC-62 melanoma) was less than 10 nM, the TGI (UACC-62 melanoma) was 30.9 nM and the GI50 (MDA-MB-435 melanoma) was 114 nM. For the same molecule, the TGI (MDA-MB-435 melanoma) was 2720 nM, the GI50 (UO-31 renal) was 335 nM and the TGI (UO-31 renal) was 8.12 µM. The GI50 (SF-268 CNS) was 132 nM, the TGI (SF-268 CNS) was 1990 nM and the GI50 (SK-MEL-5 melanoma) was 43.8 nM. For the same molecule, the TGI (SK-MEL-5 melanoma) was 1420 nM, the GI50 (K-562 leukemia) was less than 10 nM and the TGI (K-562 leukemia) was 11.2 µM. It also gave a GI50 (OVCAR-5 ovarian) of 182 nM, a TGI (OVCAR-5 ovarian) of 9.82 µM and a GI50 (SR leukemia) of less than 10 nM. It also gave a TGI (SR leukemia) of less than 10 nM, a GI50 (OVCAR-8 ovarian) of 74.3 nM and a TGI (OVCAR-8 ovarian) of 6.28 µM. It also gave a GI50 (TK-10 renal) of 887 nM, a TGI (TK-10 renal) of 10.4 µM and a GI50 (EKVX NSCLC) of 361 nM. The TGI (EKVX NSCLC) was 3.64 µM, the GI50 (SW-620 colon) was less than 10 nM and the TGI (SW-620 colon) was 10.2 µM. The GI50 ([…]-0 renal) was less than 10 nM, the TGI (786-0 renal) was 6.18 µM and the GI50 (MALME-3M melanoma) was 27.6 nM. The TGI (MALME-3M melanoma) was 2420 nM, the GI50 (SF-295 CNS) was 67.5 nM and the TGI (SF-295 CNS) was 4.57 µM. For the same molecule, the GI50 (NCI/ADR-RES ovarian) was 2500 nM, the TGI (NCI/ADR-RES ovarian) was 12.6 µM and the GI50 (SK-OV-3 ovarian) was 1130 nM. The TGI (SK-OV-3 ovarian) was 6.25 µM, the GI50 (A549 NSCLC) was 66.3 nM and the TGI (A549 NSCLC) was 12 µM. For the same molecule, the GI50 (MDA-MB-231 breast) was 1190 nM, the TGI (MDA-MB-231 breast) was 10.3 µM and the GI50 (UACC-257 melanoma) was 1020 nM. It also gave a TGI (UACC-257 melanoma) of 3.45 µM, a GI50 (NCI-H460 NSCLC) of less than 10 nM and a TGI (NCI-H460 NSCLC) of less than 10 nM. It also gave a GI50 (PC-3 prostate) of less than 10 nM, a TGI (PC-3 prostate) of 10.8 µM and a GI50 (U251 glioblastoma) of 13.3 nM. For the same molecule, the TGI (U251 glioblastoma) was 10.4 µM, the GI50 (SNB-75 CNS) was 1570 nM and the TGI (SNB-75 CNS) was 3.2 µM. It also gave a GI50 (NCI-H226 lung) of 577 nM, a TGI (NCI-H226 lung) of 12.6 µM and a GI50 (M14 melanoma) of 16.8 nM. The TGI (M14 melanoma) was 2210 nM, the GI50 (T-47D breast) was 994 nM and the TGI (T-47D breast) was 10.2 µM. For the same molecule, the GI50 (HOP-92 NSCLC) was 2310 nM, the TGI (HOP-92 NSCLC) was 11.6 µM and the GI50 (CAKI-1 renal) was 38.8 nM. The TGI (CAKI-1 renal) was 12.3 µM, the GI50 (HCC-2998 colon) was less than 10 nM and the TGI (HCC-2998 colon) was 4.21 µM. It also gave a GI50 (COLO 205 colon) of less than 10 nM, a TGI (COLO 205 colon) of 1450 nM and a GI50 (SK-MEL-28 melanoma) of less than 10 nM. It also gave a TGI (SK-MEL-28 melanoma) of 1520 nM, a GI50 (MDA-MB-468 breast) of 1360 nM and a TGI (MDA-MB-468 breast) of 3.01 µM. The GI50 (IGROV1 ovarian) was less than 10 nM, the TGI (IGROV1 ovarian) was 13.8 µM and the GI50 (A498 renal) was 19.7 nM. For the same molecule, the TGI (A498 renal) was 6.54 µM, the GI50 (SNB-19 CNS) was 1000 nM and the TGI (SNB-19 CNS) was 12.8 µM. It also gave a GI50 (HS 578T breast) of 301 nM, a TGI (HS 578T breast) of 1620 nM and a GI50 (HOP-62 NSCLC) of less than 10 nM. For the same molecule, the TGI (HOP-62 NSCLC) was 18.2 nM, the GI50 (BT-549 breast) was 11.3 nM and the TGI (BT-549 breast) was 205 nM. It also gave a GI50 (KM12 colon) of less than 10 nM, a TGI (KM12 colon) of 1680 nM and a GI50 (SF-539 CNS) of less than 10 nM. The TGI (SF-539 CNS) was 1300 nM, the GI50 (MCF7 breast) was less than 10 nM and the TGI (MCF7 breast) was 1450 nM. It also gave a GI50 (HCT-15 colon) of 65.9 nM, a TGI (HCT-15 colon) of 4.37 µM and a GI50 (NCI-H322M lung) of 644 nM. It also gave a TGI (NCI-H322M lung) of 3.14 µM, a GI50 (RPMI-8226 leukemia) of less than 10 nM and a TGI (RPMI-8226 leukemia) of less than 10 nM. The GI50 (RXF 393 renal) was 1510 nM, the TGI (RXF 393 renal) was 2990 nM and the GI50 (LOX IMVI melanoma) was less than 10 nM. For the same molecule, the TGI (LOX IMVI melanoma) was 213 nM, the GI50 (DU-145 prostate) was less than 10 nM and the TGI (DU-145 prostate) was 3.79 µM. It also gave a GI50 (ACHN renal) of 73.6 nM, a TGI (ACHN renal) of 8.68 µM and a GI50 (NCI-H522 lung) of less than 10 nM. For the same molecule, the TGI (NCI-H522 lung) was 2420 nM, the GI50 (NCI-H23 lung) was less than 10 nM and the TGI (NCI-H23 lung) was 1470 nM. The GI50 (OVCAR-3 ovarian) was less than 10 nM, the TGI (OVCAR-3 ovarian) was less than 10 nM and the GI50 (SN12C renal) was less than 10 nM. The TGI (SN12C renal) was 2870 nM, the GI50 (SK-MEL-2 melanoma) was 1220 nM and the TGI (SK-MEL-2 melanoma) was 3.17 µM. The GI50 (HL-60(TB) leukemia) was less than 10 nM, the TGI (HL-60(TB) leukemia) was 126 nM and the GI50 (OVCAR-4 ovarian) was 21.3 nM. For the same molecule, the TGI (OVCAR-4 ovarian) was 1420 nM.
